Data published in patent US8163929B2, “Dihydropyridone amides as P2X7 modulators” (Roche Palo Alto LLC, priority 2008, dated 2012).

Biological target: T1, P2X7 (UniProt Q99572)
T1 sequence (Q99572 1-595): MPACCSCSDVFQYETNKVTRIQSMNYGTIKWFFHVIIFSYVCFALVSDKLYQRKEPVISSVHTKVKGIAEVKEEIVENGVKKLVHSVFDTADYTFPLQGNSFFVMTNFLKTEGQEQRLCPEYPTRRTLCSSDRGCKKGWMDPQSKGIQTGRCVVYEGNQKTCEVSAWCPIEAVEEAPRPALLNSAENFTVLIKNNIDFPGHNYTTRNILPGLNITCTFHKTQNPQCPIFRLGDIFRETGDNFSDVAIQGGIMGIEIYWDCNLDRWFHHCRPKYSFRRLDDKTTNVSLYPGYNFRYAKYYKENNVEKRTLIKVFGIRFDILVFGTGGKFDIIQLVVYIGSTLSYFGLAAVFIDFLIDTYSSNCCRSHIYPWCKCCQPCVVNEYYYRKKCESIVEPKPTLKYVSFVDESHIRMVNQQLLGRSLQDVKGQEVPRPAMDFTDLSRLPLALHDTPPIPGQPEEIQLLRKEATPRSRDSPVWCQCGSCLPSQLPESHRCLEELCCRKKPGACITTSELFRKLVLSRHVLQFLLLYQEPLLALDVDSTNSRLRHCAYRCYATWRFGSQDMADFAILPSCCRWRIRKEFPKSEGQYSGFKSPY
Assay: P2X7 activity of Table 1
Assay type: cell-based
Conditions: pIC50 values for P2X7
Method: Stock solutions of compounds were prepared from powders as a 10 mM DMSO stock solution. These solutions were stored at RT during the two week period of these experiments to prevent freeze-thaw of the DMSO stocks. The DMSO stocks were added to the appropriate assay buffer at a concentration of 10 μM, and then diluted serially to the final concentrations that were tested. […] The aqueous solutions of compounds as well as ATP (Sigma A7699) and BzATP (Sigma B6396) were prepared fresh for each day of experiment.
1321N1 cells stably expressing the full length human P2X7 gene (1321N1-hP2X7) and HEK293 cells stably expressing the full length rat P2X7 gene (HEK293-rP2X7) were obtained from the Roche Cell Culture Facility. 1321N1-hP2X7 cells were grown in Dulbecco's Modified Eagle's Medium (DMEM) high glucose supplemented with 10% FBS and 250 μg/mL G418. HEK293-rP2X7 cells were grown in DMEM/F-12 supplemented with 10% FBS, 1 mM CaCl2, 2 mM MgCl2, 2 mM L-Glutamine and 500 μg/ml G418. Cells were split such that they never became >70% confluent.
On the day prior to the experiment, 1321N1-hP2X7 or HEK293-rP2X7 cells were released into suspension with calcium-free PBS+Versene and washed by centrifugation with calcium-free PBS to remove the Versene. Cells were resuspended in growth medium at a density of 2.5×10^5 cells/mL and seeded into black walled, clear bottom 96 well plates (50,000 cells/well) approximately 18 hr prior to intracellular calcium flux experiments.
On the day of the experiment, plates were washed with FLIPR buffer (calcium- and magnesium-free Hank's Balanced Salt Solution (HBSS) supplemented with 10 mM Hepes, 2.5 mM probenecid and 2 mM calcium chloride) using a BIO-TEK 96 channel plate washer and incubated with […] fluo-3 dye at 37° C. for one hr. The dye was then removed by plate washing and the cells were allowed to equilibrate for 20 min at room temperature with antagonist or vehicle (FLIPR buffer). Agonist (100 μM BzATP final concentration for hP2X7; 5 μM BzATP final concentration or rP2X7) was added online with the FLIPR and fluorescence measurements made at 1 sec intervals for 60 sec followed by 3 sec intervals for a further 4 min (5 min total). A final addition of 5 μM ionomycin was made and the maximal BzATP-evoked fluorescence normalized to the maximal ionomycin-evoked fluorescence.

| Compound | pIC50 |
| --- | --- |
| Cc1ccc(-c2ccn(CCO)n2)cc1NC(=O)C1=CNC(=O)C[C@H]1c1cccc(Cl)c1 (stereo in doubt) [Compound 114, 4-(3-Chloro-phenyl)-6-oxo-1,4,5,6-tetrahydro-pyridine-3-carboxylic acid {5-[1-(2-hydroxy-ethyl)-1H-pyrazol-3-yl]-2-methyl-phenyl}-amide] | 7.56 |
| Cc1ccc(-n2cccc2)cc1NC(=O)C1=CNC(=O)CC1c1cccc(F)c1 (centres unmarked) [Compound 1, 4-(3-Fluoro-phenyl)-6-oxo-1,4,5,6-tetrahydro-pyridine-3-carboxylic acid (2-methyl-5-pyrrol-1-yl-phenyl)-amide] | 6.985 |
| Cc1ccc(-c2cc(C)n(CCO)n2)cc1NC(=O)C1=CNC(=O)C[C@H]1c1ccc(F)cc1 [Compound 2, (S)-4-(4-Fluoro-phenyl)-6-oxo-1,4,5,6-tetrahydro-pyridine-3-carboxylic acid {5-[1-(2-hydroxy-ethyl)-5-methyl-1H-pyrazol-3-yl]-2-methyl-phenyl}-amide] | 7.735 |
| Cc1ccc(-c2cc(C)n(CC(C)O)n2)cc1NC(=O)C1=CNC(=O)C[C@H]1c1ccc(F)cc1 (stereo partly drawn) [Compound 7, (S)-4-(4-Fluoro-phenyl)-6-oxo-1,4,5,6-tetrahydro-pyridine-3-carboxylic acid {5-[1-(2-hydroxy-propyl)-5-methyl-1H-pyrazol-3-yl]-2-methyl-phenyl}-amide] | 7.643 |
| Cc1ccc(-c2ccnn2CC(C)C)cc1NC(=O)C1=CNC(=O)C[C@H]1c1ccc(F)cc1 [Compound 8, (S)-4-(4-Fluoro-phenyl)-6-oxo-1,4,5,6-tetrahydro-pyridine-3-carboxylic acid [5-(2-isobutyl-2H-pyrazol-3-yl)-2-methyl-phenyl]-amide] | 6.367 |
| Cc1ccc(-c2ccc(C)c(NC(=O)C3=CNC(=O)C[C@H]3c3ccc(F)cc3)c2)cn1 [Compound 10, (S)-4-(4-Fluoro-phenyl)-6-oxo-1,4,5,6-tetrahydro-pyridine-3-carboxylic acid [2-methyl-5-(6-methyl-pyridin-3-yl)-phenyl]-amide] | 6.653 |
| Cc1ccc(-n2cccn2)cc1NC(=O)C1=CNC(=O)C[C@H]1c1ccc(F)cc1 [Compound 11, (S)-4-(4-Fluoro-phenyl)-6-oxo-1,4,5,6-tetrahydro-pyridine-3-carboxylic acid (2-methyl-5-pyrazol-1-yl-phenyl)-amide] | 7.763 |
| Cc1cc(-c2ccc(C)c(NC(=O)C3=CNC(=O)C[C@H]3c3ccc(F)cc3)c2)n(CCO)n1 [Compound 12, (S)-4-(4-Fluoro-phenyl)-6-oxo-1,4,5,6-tetrahydro-pyridine-3-carboyxlic acid {5-[2-(2-hydroxy-ethyl)-5-methyl-2H-pyrazol-3-yl]-2-methyl-phenyl}-amide] | 6.913 |
| Cc1ccc(-c2ccnn2C)cc1NC(=O)C1=CNC(=O)C[C@H]1c1ccc(F)cc1 [Compound 13, (S)-4-(4-Fluoro-phenyl)-6-oxo-1,4,5,6-tetrahydro-pyridine-3-carboxylic acid [2-methyl-5-(2-methyl-2H-pyrazol-3-yl)-phenyl]-amide] | 7.033 |
| Cc1ccc(-n2ncc(=O)[nH]c2=O)cc1NC(=O)C1=CNC(=O)C[C@H]1c1ccc(F)cc1 [Compound 16, (S)-4-(4-Fluoro-phenyl)-6-oxo-1,4,5,6-tetrahydro-pyridine-3-carboxylic acid [5-(3,5-dioxo-4,5-dihydro-3H-[1,2,4]triazin-2-yl)-2-methyl-phenyl]-amide] | 7.23 |
| CCc1cc(-c2cccc(NC(=O)C3=CNC(=O)C[C@H]3c3ccc(F)cc3)c2)n[nH]1 [Compound 17, (S)-4-(4-Fluoro-phenyl)-6-oxo-1,4,5,6-tetrahydro-pyridine-3-carboxylic acid [3-(5-ethyl-1H-pyrazol-3-yl)-phenyl]-amide] | 6.073 |
| Cc1cc(-c2cccc(NC(=O)C3=CNC(=O)C[C@H]3c3ccc(F)cc3)c2)nn1C [Compound 18, (S)-4-(4-Fluoro-phenyl)-6-oxo-1,4,5,6-tetrahydro-pyridine-3-carboxylic acid [3-(1,5-dimethyl-1H-pyrazol-3-yl)-phenyl]-amide] | 5.72 |
| Cc1ccc(-c2cc(C)n(C[C@@H](O)CO)n2)cc1NC(=O)C1=CNC(=O)C[C@H]1c1ccc(F)cc1 [Compound 19, (S)-4-(4-Fluoro-phenyl)-6-oxo-1,4,5,6-tetrahydro-pyridine-3-carboxylic acid {5-[1-((R)-2,3-dihydroxy-propyl)-5-methyl-1H-pyrazol-3-yl]-2-methyl-phenyl}-amide] | 7.423 |
| Cc1cc(-c2cccc(NC(=O)C3=CNC(=O)C[C@H]3c3ccc(F)cc3)c2)n(C)n1 [Compound 20, (S)-4-(4-Fluoro-phenyl)-6-oxo-1,4,5,6-tetrahydro-pyridine-3-carboxylic acid [3-(2,5-dimethyl-2H-pyrazol-3-yl)-phenyl]-amide] | 5.31 |
| Cc1cc(-c2ccc(C)c(NC(=O)C3=CNC(=O)C[C@H]3c3cccc(F)c3)c2)n[nH]1 [Compound 22, (S)-4-(3-Fluoro-phenyl)-6-oxo-1,4,5,6-tetrahydro-pyridine-3-carboxylic acid [2-methyl-5-(5-methyl-1H-pyrazol-3-yl)-phenyl]-amide] | 7.75 |

The next lines start with the values.

| pIC50 | Compound |
| --- | --- |
| 6.21 | Cc1ccc(-c2nnn(C)n2)cc1NC(=O)C1=CNC(=O)C[C@H]1c1ccc(F)cc1 [Compound 3, (S)-4-(4-Fluoro-phenyl)-6-oxo-1,4,5,6-tetrahydro-pyridine-3-carboxylic acid [2-methyl-5-(2-methyl-2H-tetrazol-5-yl)-phenyl]-amide] |
| 7.715 | Cc1ccc(-c2cc(C)n(C)n2)cc1NC(=O)C1=CNC(=O)C[C@H]1c1ccc(F)cc1 [Compound 4, (S)-4-(4-Fluoro-phenyl)-6-oxo-1,4,5,6-tetrahydro-pyridine-3-carboxylic acid [5-(1,5-dimethyl-1H-pyrazol-3-yl)-2-methyl-phenyl]-amide] |
| 7.745 | Cc1ccc(-c2cc[nH]n2)cc1NC(=O)C1=CNC(=O)C[C@H]1c1ccc(F)cc1 [Compound 5, (S)-4-(4-Fluoro-phenyl)-6-oxo-1,4,5,6-tetrahydro-pyridine-3-carboxylic acid [2-methyl-5-(1H-pyrazol-3-yl)-phenyl]-amide] |
| 7.07 | Cc1ccc(-c2ccc(C)c(NC(=O)C3=CNC(=O)C[C@H]3c3ccc(F)cc3)c2)nc1 [Compound 6, (S)-4-(4-Fluoro-phenyl)-6-oxo-1,4,5,6-tetrahydro-pyridine-3-carboxylic acid [2-methyl-5-(5-methyl-pyridin-2-yl)-phenyl]-amide] |
| 6.1767 | Cc1ccc(-c2nnnn2C)cc1NC(=O)C1=CNC(=O)C[C@H]1c1ccc(F)cc1 [Compound 9, (S)-4-(4-Fluoro-phenyl)-6-oxo-1,4,5,6-tetrahydro-pyridine-3-carboxylic acid [2-methyl-5-(1-methyl-1H-tetrazol-5-yl)-phenyl]-amide] |
| 6.913 | CCc1cc(-c2ccc(C)c(NC(=O)C3=CNC(=O)C[C@H]3c3ccc(F)cc3)c2)[nH]n1 [Compound 14, (S)-4-(4-Fluoro-phenyl)-6-oxo-1,4,5,6-tetrahydro-pyridine-3-carboxylic acid [5-(5-ethyl-2H-pyrazol-3-yl)-2-methyl-phenyl]-amide] |
| 7.79 | Cc1ccc(-c2[nH]nc(C)c2C)cc1NC(=O)C1=CNC(=O)C[C@H]1c1ccc(F)cc1 [Compound 15, (S)-4-(4-Fluoro-phenyl)-6-oxo-1,4,5,6-tetrahydro-pyridine-3-carboxylic acid [5-(4,5-dimethyl-2H-pyrazol-3-yl)-2-methyl-phenyl]-amide] |
| 6.525 | Cc1cc(-c2ccc(C)c(NC(=O)C3=CNC(=O)C[C@H]3c3ccc(F)cc3)c2)n(C)n1 [Compound 21, (S)-4-(4-Fluoro-phenyl)-6-oxo-1,4,5,6-tetrahydro-pyridine-3-carboxylic acid [5-(2,5-dimethyl-2H-pyrazol-3-yl)-2-methyl-phenyl]-amide] |
